# Where “and” joins values, the source holds several entries; their conditions need not be identical. Equal entries are not always repeated.
# Experiments:
# [1] = tested on: children with hypochondroplasia; assay: Parent-reported quality of life, QoLISSY scale; type: in vivo, human
# Description: Secondary outcomes included the change in body proportions as measured by sitting height to standing height ratio and arm span minus standing height, as well as the change in bone age to chronological age ratio after 12 months of therapy. Sitting height was measured three times at each visit using a sitting height table. The average of the three values was used. Sitting height to standing height ratio and arm span minus standing height were standardized for age and sex using available reference data and SDS were calculated.[11]^,[12] Bone age X-rays were read by a single reviewer who was blinded to participant ID, age and time point. Exploratory endpoints included pharmacokinetic parameters, pharmacodynamic markers including collagen X biomarker (CXM) levels and urine cGMP production, and changes in quality of life as measured by the QoLISSY scale.[13] CXM levels in serum were measured in duplicate via an ELISA assay at the Shriners Hospitals for Children in Portland, Oregon as previously described.[14] The average of the two values was used for analysis. Urine samples were obtained for cGMP measurement at baseline and 60, 120, and 240 min after vosoritide injections at the Day 1, Month 6 and Month 12 visits. cGMP levels were assayed at ICON Laboratories (Farmingdale, NY) and were normalized to urine creatinine levels at each time point.
# (§1) No formal power calculations were done for this proof of principle study. Sample size was determined based on logistical feasibility. Medication adherence was calculated using the number of returned empty vials divided by the number of days of prescribed therapy. Demographics and clinical characteristics were summarized with mean and standard deviation (SD), median and interquartile (IQR) for numerical variables, frequency and proportion for categorical variables. Primary and secondary clinical outcomes were summarized with mean (SD) for the 6-month observation period and the 12-month treatment period. Paired t-tests were carried out to compare the difference between the treatment and observation periods. The corresponding p-value and 95% confidence interval (CI) were reported. Box and whisker plots were used for both primary endpoints (annualized growth velocity and height SDS) and exploratory endpoints (CXM and cGMP) to visualize the trends for the change from baseline to each of the follow-up visits. Safety data (AEs) were summarized as count and percentage of patients as well as the number of total occurrences per each listed AE for the observation period and the treatment period, respectively. As exploratory analyses, the primary endpoints were stratified based on age, baseline growth velocity and baseline height SDS. The summaries of mean (SD) for each visit, mean differences between treatment and observation periods, and the corresponding p-value and 95% CI were all reported. Parent reported quality of life using the QoLISSY scale was also reported with a similar tabular format. Data were analyzed using SAS for Windows version 9.4 (SAS Institute Inc., Cary, NC). A two-sided test with a significance level of 0.05 was used for all hypothesis tests.
# [2] = tested on: children with hypochondroplasia; assay: Phase 2 open-label trial: height efficacy outcomes (annualized growth velocity, height SDS); type: in vivo, human; conditions: for Annualized growth velocity, treatment period / Annualized growth velocity SDS, treatment period: SD
# Description: The study consists of a 6-month observation period to establish a baseline annualized growth velocity followed by a 12-month intervention period during which vosoritide is administered daily via subcutaneous injection at a dose of 15 μg/kg/day, the same dose as used in the Phase 3 trial of children with achondroplasia.[7] […] Details of the protocol can be found in the Supplementary Materials.
# The study has 3 prespecified co-primary outcomes: 1. To evaluate the safety and tolerability of daily subcutaneous injections of vosoritide administered for 12 months in patients with selected genetic causes of short stature, 2. To evaluate the change from baseline in age-sex standardized annualized growth velocity after 12 months of daily SC injections of vosoritide in patients with selected genetic causes of short stature, and 3. To evaluate the change from baseline in age-sex standardized height SDS after 12 months of daily SC injections of vosoritide in patients with selected genetic causes of short stature. Annualized growth velocity was standardized using data from the First Zurich Longitudinal Study of Growth and Development[9] as it includes growth velocity data starting at age 2.5 years. Height SDS was calculated using the United States CDC growth charts.[8] Hypochondroplasia specific height SDS was calculated using recently published hypochondroplasia growth curves.[10] To measure these outcomes, the following 3 co-primary endpoints were specified: 1. The incidence of adverse events per participant, 2. The change from baseline in age-sex standardized annualized growth velocity after 12 months of treatment, and 3. The change from baseline in age-sex standardized height SDS after 12 months of treatment. Height was measured five times at each study visit on a wall-mounted calibrated Harpenden stadiometer. The average of all five values was used. Safety assessments included routine laboratory evaluations at each visit, baseline and Month 12 echocardiograms, electrocardiograms at each visit, vital signs measurements, and spine X-rays at Day 1 and Month 12.
# as §1
sequence,measurement,setting,value
"PGQEHPNARKYKGANKKGLSKGCFGLKLDRIGSMSGLGC (disulfide) [vosoritide, recombinant 39-amino-acid C-type natriuretic peptide analog expressed in E. coli, cyclic by an intramolecular disulfide bond]",Overall or domain specific parental-reported quality of life (QoLISSY),[1]; 12 months of treatment,no significant changes
same,"QoLISSY Coping, change during treatment period","[1]; mean, 95% CI (-7.29, 3.75), p=0.51",-1.77
same,"QoLISSY Belief, change during treatment period","[1]; mean, 95% CI (-9.30, 10.39), p=0.91",0.54
same,"QoLISSY Physical, change during treatment period","[1]; mean, 95% CI (-10.25, 7.47), p=0.75",-1.39
same,"QoLISSY Total (Social, Emotional, Coping), change during treatment period","[1]; mean, 95% CI (-10.55, 4.09), p=0.37",-3.23
same,"QoLISSY Emotional, change during treatment period","[1]; mean, 95% CI (-12.12, 3.01), p=0.23",-4.56
same,"QoLISSY Social, change during treatment period","[1]; mean, 95% CI (-12.43, 4.96), p=0.38",-3.74
same,"QoLISSY Total (Social, Emotional, Coping), Month 6","[1]; parent-reported, mean, SD (16.08), Day 1 60.33 (18.99)",61.73
same,"QoLISSY Treatment, Month 12","[1]; parent-reported, mean, SD (16.43)",38.23
same,"QoLISSY Total (Social, Emotional, Coping), Month 12","[1]; parent-reported, mean, SD (17.99)",57.10
same,"QoLISSY Treatment, Month 6","[1]; parent-reported, mean, SD (18.36)",37.86
same,"QoLISSY Emotional, Month 12","[1]; parent-reported, mean, SD (18.44)",62.37
same,"QoLISSY Coping, Month 12","[1]; parent-reported, mean, SD (18.71)",35.79
same,"QoLISSY Physical, Month 6","[1]; parent-reported, mean, SD (18.77), Day 1 52.60 (18.22)",55.38
same,"QoLISSY Social, Month 6","[1]; parent-reported, mean, SD (19.50), Day 1 61.46 (21.05)",61.20
same,"QoLISSY Physical, Month 12","[1]; parent-reported, mean, SD (20.09)",51.22
same,"QoLISSY Emotional, Month 6","[1]; parent-reported, mean, SD (20.12), Day 1 66.93 (22.25)",68.62
same,"QoLISSY Social, Month 12","[1]; parent-reported, mean, SD (20.40)",57.72
same,"QoLISSY Coping, Month 6","[1]; parent-reported, mean, SD (20.45), Day 1 38.14 (19.61)",35.61
same,"QoLISSY Belief, Month 12","[1]; parent-reported, mean, SD (22.98)",66.93
same,"QoLISSY Belief, Month 6","[1]; parent-reported, mean, SD (29.10), Day 1 65.22 (28.63)",62.23
same,"Annualized growth velocity, treatment period","[2]; 15 μg/kg/day SC daily, 12-month treatment period, n=24, mean (SD), 6-month observation period 5.12 (1.36)",6.93 (0.93) cm/year
same,"Standing height SDS, change during treatment period","[2]; CDC growth charts, Day 1 to Month 12, n=24, mean (95% CI), change in observation period 0.01 (−0.06, 0.08)","0.37 (0.27, 0.47) SD"
same,"Hypochondroplasia specific standing height SDS, change during treatment period","[2]; Day 1 to Month 12, n=24, mean (95% CI), change in observation period 0.03 (−0.12, 0.19)","0.41 (0.32, 0.50) SD"
same,"Annualized growth velocity SDS, treatment period","[2]; age-sex standardized (First Zurich Longitudinal Study), 15 μg/kg/day SC, 12-month treatment, n=24, mean (SD), observation period −1.14 (1.29)",1.12 (1.05) cm/year
same,"Annualized growth velocity, Month 6 versus Month 12 visit","[2]; n=24, on treatment",no significant difference
same,"Increase in annualized growth velocity, single participant with treatment interruption","[2]; person, vosoritide suspended for 40 days for immune thrombocytopenia",2.4 cm/year
same,"Annualized growth velocity, treatment period","[2]; subgroup Age 3 to <5 Year (N=10), 12-month treatment, 15 μg/kg/day SC, mean (SD), observation 5.97 (1.38)",7.32 (0.79) cm/yr
same,"Annualized growth velocity SDS, treatment period","[2]; subgroup Age 3 to <5 Year (N=10), mean (SD), observation -0.82 (1.12)",1.23 (1.01) cm/yr
same,"Annualized growth velocity, treatment period","[2]; subgroup Age 5 to <9 Year (N=11), mean (SD), observation 4.27 (0.75)",6.91 (0.80) cm/yr
same,"Annualized growth velocity SDS, treatment period","[2]; subgroup Age 5 to <9 Year (N=11), mean (SD), observation -1.93 (0.81)",1.29 (1.13) cm/yr
same,"Annualized growth velocity SDS, treatment period","[2]; subgroup Age 9 to <11 Year (N=3), mean (SD), observation 0.71 (1.12)",0.16 (0.38) cm/yr
same,"Annualized growth velocity, treatment period","[2]; subgroup Age 9 to <11 Year (N=3), mean (SD), observation 5.37 (1.53)",5.71 (0.98) cm/yr
same,"Annualized growth velocity, treatment period","[2]; subgroup GV baseline <=5.0 (N=14), mean (SD), observation 4.17 (0.59)",6.91 (1.01) cm/yr
same,"Annualized growth velocity, treatment period","[2]; subgroup GV baseline > 5.0 (N=10), mean (SD), observation 6.45 (0.94)",6.96 (0.85) cm/yr
same,"Annualized growth velocity, treatment period","[2]; subgroup Height SDS baseline -3.5 to <=-3.0 (N=9), mean (SD), observation 5.17 (0.89)",6.88 (0.84) cm/yr
same,"Annualized growth velocity, treatment period","[2]; subgroup Height SDS baseline <=-3.5 (N=7), mean (SD), observation 4.67 (1.11)",6.64 (1.14) cm/yr
same,"Annualized growth velocity, treatment period","[2]; subgroup Height SDS baseline >-3.0 (N=8), mean (SD), observation 5.46 (1.95)",7.24 (0.86) cm/yr
same,"Change in annualized growth velocity (SDS), single participants without the Asn540Lys variant in FGFR3","[2]; two participants (Gly342Cys, Ser351Phe per Table 1), one value each, cohort mean 2.26 SD",2.5 SD and 2.4 SD

# Source: article PMC11133798, “Vosoritide treatment for children with hypochondroplasia: a phase 2 trial” (eClinicalMedicine, 2024)
